These results are taken from paper PMC7892554 (Scientific Reports, 2021).

For data set [1] the following is noted: mouse, in vivo, iv, 33 mg/kg.
In a further data set the test system is M. smegmatis. Format: cell-based, Mycobacterium smegmatis mc^2155.
The nature of another data set: in vivo. As to conditions: male, BALB/c, mouse, iv, 33 mg/kg.
Data set [2] deals with M. tuberculosis H37Rv infected mice. The class given is in vivo, BALB/c mice.
In another data set the test system is M. tuberculosis H37Rv. Also on record: species or system BALB/c mice. As to conditions: mouse, in vivo.
For data set [3] the following is noted: in vivo; cited from earlier work.

For orientation: Cmax means the highest concentration seen after dosing. One may read the half-life as the time needed for the level to fall by half in the phase considered. A higher half-life goes with slow decline.

Entries after “also recorded” stand apart in the source; their conditions may differ. Like-named read-outs stand apart in the source and are kept apart here. Positions of bridges follow the written chain, without caps; N, C: chain ends. Residues, ends and D or L forms follow the SMILES beside them. A value given as a limit tells only on which side of the number the result lay.

For `CC[C@H](C)[C@@H]1NC(=O)[C@H](CO)NC(=O)[C@H](CCCCN)NC(=O)[C@@H]2CSSC[C@@H](C(=O)N[C@@H](Cc3ccc(O)cc3)C(=O)O)NC(=O)[C@H](CCCCN)NC(=O)[C@@H]3CSSC[C@H](NC(=O)[C@H](CCC(N)=O)NC(=O)[C@H]([C@@H](C)CC)NC(=O)[C@H](CC(=O)O)NC(=O)[C@H](CC(=O)O)NC(=O)[C@H](CCC(=O)O)NC(=O)[C@H](CO)NC(=O)[C@H](Cc4c[nH]c5ccccc45)NC(=O)[C@@H]4CCCN4C(=O)CNC(=O)[C@H](CC(N)=O)NC(=O)[C@@H](NC(=O)CNC(=O)[C@H](Cc4ccccc4)NC(=O)CN)CSSC[C@H](NC(=O)[C@H](Cc4ccc(O)cc4)NC(=O)CNC(=O)CNC(=O)[C@H](CCCCN)NC(=O)[C@H](Cc4ccc(O)cc4)NC(=O)CNC(=O)[C@H](CCCCN)NC1=O)C(=O)N[C@@H](C)C(=O)N[C@@H](CCCNC(=N)N)C(=O)NCC(=O)NCC(=O)N[C@@H](Cc1ccccc1)C(=O)N[C@@H](C(C)C)C(=O)N3)C(=O)N[C@@H](Cc1c[nH]cn1)C(=O)N[C@@H](CC(N)=O)C(=O)N[C@@H](Cc1c[nH]cn1)C(=O)N2` [NZX] (H-GFGCNGPWSEDDIQCHNHCKSIKGYKGGYCARGGFVCKCY-OH; disulfide 4-30, 15-37, 19-39), in data set [1], the “NZX in the circulation after 240 min” value is listed as “not detected”. In the data set with M. smegmatis, the “Frequency at which resistant mutants emerge” value is reported as < 10^–9 and the Resistant mutants detected result is listed as “did not detect any resistant mutants”. In the data set “in vivo”, this molecule returned a Cmax of 61 µg/mL and a half-life of 42 min. In addition, in data set [2] (mouse, in vivo), the “Lung tissue destruction / inflammatory score (perivascular, peribronchiolar and alveolar infiltration)” value was “decreased tissue destruction”. In addition, the “Bacterial (CFU) reduction compared to the untreated control” value (shortened to “Bacterial (CFU) reduction”) in the data set with M. tuberculosis H37Rv is listed as 75%.

In the case of `CC[C@@H](CO)NCCN[C@@H](CC)CO` [ethambutol], the “Lung tissue destruction / inflammatory score (perivascular, peribronchiolar and alveolar infiltration)” value in data set [2] (n = 4–5) is given as “more severe tissue destruction”. Also, in the data set on M. tuberculosis H37Rv, the “Bacterial (CFU) reduction” value is listed as 79%.

Take `NNC(=O)c1ccncc1` [isoniazid]: the “Lung tissue destruction / inflammatory score (perivascular, peribronchiolar and alveolar infiltration)” value in data set [2] (n = 4–5) is recorded as “decreased tissue destruction; also recorded: preserved alveolar structure best”. Also, in the data set on M. tuberculosis H37Rv, the “Bacterial (CFU) reduction” value was 92%.

Turning to plectasin, the “Terminal serum elimination half-life” value in data set [3] is on record as 51 min.
